{"source": "ChEMBL document CHEMBL1806408", "about": "“Design-driven LO: the discovery of new ultra long acting dibasic β2-adrenoceptor agonists” (Bioorg Med Chem Lett, 2011)", "key": {"D(2) dopamine receptor": {"target": "D(2) dopamine receptor (Homo sapiens, UniProt P14416)", "sequence (P14416 whole entry)": "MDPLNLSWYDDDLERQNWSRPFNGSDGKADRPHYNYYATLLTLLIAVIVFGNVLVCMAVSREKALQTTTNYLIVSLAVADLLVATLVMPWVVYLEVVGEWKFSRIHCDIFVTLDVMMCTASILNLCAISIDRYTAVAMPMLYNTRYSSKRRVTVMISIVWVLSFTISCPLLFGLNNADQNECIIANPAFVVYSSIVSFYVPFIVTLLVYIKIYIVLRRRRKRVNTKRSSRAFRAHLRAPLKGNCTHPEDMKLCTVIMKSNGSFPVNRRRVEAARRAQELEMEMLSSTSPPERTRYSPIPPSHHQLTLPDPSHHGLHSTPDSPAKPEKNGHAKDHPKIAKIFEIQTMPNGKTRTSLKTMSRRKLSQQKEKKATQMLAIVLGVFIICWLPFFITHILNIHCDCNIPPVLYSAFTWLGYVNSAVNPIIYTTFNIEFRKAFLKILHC"}, "physchem": {"assay": "physchem", "conditions": "octanol/phosphate buffer, pH 7.4"}, "[1]": {"target": "T1, Beta-1 adrenergic receptor (Homo sapiens, UniProt P08588)", "T1 sequence (P08588 whole entry)": "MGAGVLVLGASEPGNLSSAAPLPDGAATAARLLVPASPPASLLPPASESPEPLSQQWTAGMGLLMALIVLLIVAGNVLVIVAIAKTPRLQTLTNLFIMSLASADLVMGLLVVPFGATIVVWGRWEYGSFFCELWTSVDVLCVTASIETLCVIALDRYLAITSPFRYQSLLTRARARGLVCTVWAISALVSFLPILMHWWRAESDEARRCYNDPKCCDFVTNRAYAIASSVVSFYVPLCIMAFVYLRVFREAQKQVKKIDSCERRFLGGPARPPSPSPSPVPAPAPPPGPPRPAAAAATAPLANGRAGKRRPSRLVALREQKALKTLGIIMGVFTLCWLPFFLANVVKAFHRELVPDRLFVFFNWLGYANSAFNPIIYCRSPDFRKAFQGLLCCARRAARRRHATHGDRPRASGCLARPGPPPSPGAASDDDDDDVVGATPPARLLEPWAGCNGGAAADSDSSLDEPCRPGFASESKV"}, "[2]": {"assay": "Selectivity ratio of EC50 for human adrenergic beta2 receptor to EC50 for adrenergic beta1 receptor"}, "[3]": {"assay": "Selectivity ratio of IC50 for dopamine 2 receptor over EC50 for human adrenergic beta2 receptor"}, "[4]": {"target": "T1, Beta-1 adrenergic receptor", "remark": "listed apart in the source"}, "[5]": {"assay": "Selectivity ratio of IC50 for adrenergic beta1 receptor over EC50 for human adrenergic beta2 receptor"}, "Cavia porcellus [6]": {"system": "Cavia porcellus", "assay": "Bronchodilatory activity in intratracheally dosed guinea pig assessed as inhibition of histamine-induced bronchoconstriction after 24 hrs", "type": "functional"}, "Cavia porcellus [7]": {"system": "Cavia porcellus", "assay": "Bronchodilatory activity in intratracheally dosed guinea pig assessed as inhibition of histamine-induced bronchoconstriction", "conditions": "inhaled or nasal"}, "in vivo": {"assay": "in vivo", "conditions": "rat, plasma, iv"}, "[8]": {"assay": "Oral bioavailability in rat", "type": "ADME, organism-based", "conditions": "in vivo"}, "[9]": {"target": "Beta-2 adrenergic receptor (Homo sapiens, UniProt P07550)", "sequence (P07550 whole entry)": "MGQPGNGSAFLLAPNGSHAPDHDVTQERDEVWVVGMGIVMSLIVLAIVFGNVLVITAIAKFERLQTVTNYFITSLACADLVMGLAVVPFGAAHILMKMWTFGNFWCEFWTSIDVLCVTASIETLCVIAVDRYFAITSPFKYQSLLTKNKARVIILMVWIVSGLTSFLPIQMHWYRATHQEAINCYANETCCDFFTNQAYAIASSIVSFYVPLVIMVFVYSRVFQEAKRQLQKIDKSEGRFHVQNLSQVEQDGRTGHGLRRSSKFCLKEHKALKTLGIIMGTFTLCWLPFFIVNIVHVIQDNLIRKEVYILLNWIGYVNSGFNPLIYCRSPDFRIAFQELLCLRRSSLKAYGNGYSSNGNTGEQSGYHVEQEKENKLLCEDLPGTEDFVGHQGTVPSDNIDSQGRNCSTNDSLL"}}, "data": [{"smiles": "O=c1[nH]c2c(O)ccc([C@@H](O)CNCCCSCCNCCc3cccc(Cl)c3)c2s1", "values": [{"measurement": "IC50", "setting": "D(2) dopamine receptor", "value": 1.58, "unit": "µM"}, {"measurement": "logD", "setting": "physchem", "value": 1.1}]}, {"smiles": "O=c1[nH]c2c(O)ccc([C@@H](O)CNCCSCCCNCCc3cccc(C(F)(F)F)c3)c2s1", "values": [{"measurement": "logD", "setting": "physchem", "value": 1.2}]}, {"smiles": "CCOc1ccc(CCNCCCSCCNC[C@H](O)c2ccc(O)c3[nH]c(=O)sc23)cc1", "values": [{"measurement": "logD", "setting": "physchem", "value": 0.4}]}, {"smiles": "O=c1[nH]c2c(O)ccc([C@@H](O)CNCCCSCCCOCCc3ccccc3)c2s1", "values": [{"measurement": "EC50", "setting": "[1]", "value": 0.00398, "unit": "µM"}, {"measurement": "logD", "setting": "physchem", "value": "> 2.5"}]}, {"smiles": "O=c1[nH]c2c(O)ccc([C@@H](O)CNCCCOCCNCCc3cccc(Cl)c3Cl)c2s1", "values": [{"measurement": "Ratio EC50", "setting": "[2]", "value": 178}, {"measurement": "IC50", "setting": "D(2) dopamine receptor", "value": 2, "unit": "µM"}, {"measurement": "EC50", "setting": "[1]", "value": 0.158, "unit": "µM"}, {"measurement": "Ratio IC50/EC50", "setting": "[3]", "value": 2510}, {"measurement": "IC50", "setting": "[4]", "value": 0.0501, "unit": "µM"}, {"measurement": "logD", "setting": "physchem", "value": 0.6}, {"measurement": "Ratio IC50/EC50", "setting": "[5]", "value": 63}]}, {"smiles": "O=c1[nH]c2c(O)ccc([C@@H](O)CNCCSCCCNCCc3ccccc3Cl)c2s1", "values": [{"measurement": "inhibition (INH)", "setting": "Cavia porcellus [6]", "value": 49, "unit": "%"}, {"measurement": "ED80", "setting": "Cavia porcellus [7]", "value": 7, "unit": "µg/kg"}, {"measurement": "half-life", "setting": "in vivo", "value": 15.9, "unit": "h"}, {"measurement": "bioavailability", "setting": "[8]", "value": "< 1", "unit": "%"}, {"measurement": "logD", "setting": "physchem", "value": 1}]}, {"smiles": "O=c1[nH]c2c(O)ccc([C@@H](O)CNCCCOCCOCCc3ccccc3)c2s1", "values": [{"measurement": "logD", "setting": "physchem", "value": 1.1}]}, {"smiles": "O=c1[nH]c2c(O)ccc([C@@H](O)CNCCCSCCNCCc3cccc(Cl)c3Cl)c2s1", "values": [{"measurement": "Ratio EC50", "setting": "[2]", "value": 35}, {"measurement": "IC50", "setting": "D(2) dopamine receptor", "value": 1, "unit": "µM"}, {"measurement": "EC50", "setting": "[1]", "value": 0.0631, "unit": "µM"}, {"measurement": "EC50", "setting": "[9]", "value": 0.00158, "unit": "µM"}, {"measurement": "Ratio IC50/EC50", "setting": "[3]", "value": 562}, {"measurement": "IC50", "setting": "[4]", "value": 0.0794, "unit": "µM"}, {"measurement": "logD", "setting": "physchem", "value": 1.7}, {"measurement": "Ratio IC50/EC50", "setting": "[5]", "value": 45}]}, {"smiles": "CCc1ccc(CCNCCCSCCNC[C@H](O)c2ccc(O)c3[nH]c(=O)sc23)cc1", "values": [{"measurement": "logD", "setting": "physchem", "value": 0.9}]}, {"smiles": "O=c1[nH]c2c(O)ccc([C@@H](O)CNCCSCCCOCCc3ccccc3)c2s1", "values": [{"measurement": "IC50", "setting": "D(2) dopamine receptor", "value": "> 1", "unit": "µM"}, {"measurement": "logD", "setting": "physchem", "value": 2.5}]}, {"smiles": "NC(=O)C(c1ccccc1)(c1ccccc1)[C@@H]1CCN(CCc2ccc3c(c2)CCO3)C1", "note": "[DARIFENACIN]", "values": [{"measurement": "ED80", "setting": "Cavia porcellus [7]", "value": 14, "unit": "µg/kg"}, {"measurement": "Ratio EC50", "setting": "[2]", "value": 2}, {"measurement": "half-life", "setting": "in vivo", "value": 7.6, "unit": "h"}, {"measurement": "Ratio IC50/EC50", "setting": "[3]", "value": 1860}, {"measurement": "Ratio IC50/EC50", "setting": "[5]", "value": 21}]}, {"smiles": "CN(CCOCCCNC[C@H](O)c1ccc(O)c2[nH]c(=O)sc12)CCc1ccccc1", "values": [{"measurement": "Ratio EC50", "setting": "[2]", "value": 79}, {"measurement": "IC50", "setting": "D(2) dopamine receptor", "value": 2.51, "unit": "µM"}, {"measurement": "EC50", "setting": "[1]", "value": 0.2, "unit": "µM"}, {"measurement": "EC50", "setting": "[9]", "value": 0.00251, "unit": "µM"}, {"measurement": "Ratio IC50/EC50", "setting": "[3]", "value": 794}, {"measurement": "IC50", "setting": "[4]", "value": 0.398, "unit": "µM"}, {"measurement": "Ratio IC50/EC50", "setting": "[5]", "value": 150}]}, {"smiles": "OCc1cc(C(O)CNCCCCCCOCCCCc2ccccc2)ccc1O", "note": "(centres undefined) [SALMETEROL]", "values": [{"measurement": "ED80", "setting": "Cavia porcellus [7]", "value": 1, "unit": "µg/kg"}, {"measurement": "half-life", "setting": "in vivo", "value": 2.9, "unit": "h"}, {"measurement": "logD", "setting": "physchem", "value": 1.9}]}, {"smiles": "O=c1[nH]c2c(O)ccc([C@@H](O)CNCC[S+]([O-])CCCNCCc3cccc(Cl)c3)c2s1", "note": "(some centres undefined)", "values": [{"measurement": "Ratio EC50", "setting": "[2]", "value": 8}, {"measurement": "IC50", "setting": "D(2) dopamine receptor", "value": "> 3.16", "unit": "µM"}, {"measurement": "EC50", "setting": "[1]", "value": 0.0398, "unit": "µM"}, {"measurement": "EC50", "setting": "[9]", "value": 0.00501, "unit": "µM"}, {"measurement": "Ratio IC50/EC50", "setting": "[3]", "value": "> 560"}, {"measurement": "IC50", "setting": "[4]", "value": 0.158, "unit": "µM"}, {"measurement": "logD", "setting": "physchem", "value": 0.2}, {"measurement": "Ratio IC50/EC50", "setting": "[5]", "value": 26}]}, {"smiles": "O=c1[nH]c2c(O)ccc([C@@H](O)CNCCCSCCNCCc3ccccc3Cl)c2s1", "values": [{"measurement": "IC50", "setting": "D(2) dopamine receptor", "value": 1, "unit": "µM"}, {"measurement": "EC50", "setting": "[1]", "value": 0.0398, "unit": "µM"}]}, {"smiles": "O=c1[nH]c2c(O)ccc([C@@H](O)CNCCOCCCNCCc3cccc(Cl)c3)c2s1", "values": [{"measurement": "logD", "setting": "physchem", "value": 0.8}]}, {"smiles": "O=c1[nH]c2c(O)ccc([C@@H](O)CNCCCOCCNCCc3cccc(Cl)c3)c2s1", "values": [{"measurement": "Ratio EC50", "setting": "[2]", "value": 100}, {"measurement": "IC50", "setting": "D(2) dopamine receptor", "value": "> 2.51", "unit": "µM"}, {"measurement": "EC50", "setting": "[1]", "value": 0.0398, "unit": "µM"}, {"measurement": "EC50", "setting": "[9]", "value": 0.0002, "unit": "µM"}, {"measurement": "Ratio IC50/EC50", "setting": "[3]", "value": "> 14100"}, {"measurement": "IC50", "setting": "[4]", "value": 0.0631, "unit": "µM"}, {"measurement": "logD", "setting": "physchem", "value": 0}, {"measurement": "Ratio IC50/EC50", "setting": "[5]", "value": 45}]}, {"smiles": "O=c1[nH]c2c(O)ccc([C@@H](O)CNCCSCCCNCCc3cccc(Cl)c3Cl)c2s1", "values": [{"measurement": "half-life", "setting": "in vivo", "value": 10.1, "unit": "h"}]}, {"smiles": "O=c1[nH]c2c(O)ccc(CCNCCS(=O)(=O)CCCOCCc3ccccc3)c2s1", "note": "[SIBENADET]", "values": [{"measurement": "ED80", "setting": "Cavia porcellus [7]", "value": 7, "unit": "µg/kg"}, {"measurement": "IC50", "setting": "D(2) dopamine receptor", "value": 0.1, "unit": "µM"}, {"measurement": "EC50", "setting": "[9]", "value": 0.000631, "unit": "µM"}, {"measurement": "Ratio IC50/EC50", "setting": "[3]", "value": 141}, {"measurement": "IC50", "setting": "[4]", "value": "> 10", "unit": "µM"}, {"measurement": "logD", "setting": "physchem", "value": 2.6}, {"measurement": "Ratio IC50/EC50", "setting": "[5]", "value": "> 14000"}]}, {"smiles": "O=c1[nH]c2c(O)ccc([C@@H](O)CNCCSCCCNCCc3ccccc3)c2s1", "values": [{"measurement": "half-life", "setting": "in vivo", "value": 10.8, "unit": "h"}, {"measurement": "logD", "setting": "physchem", "value": 0.1}]}, {"smiles": "O=c1[nH]c2c(O)ccc([C@@H](O)CNCCCSCCOCCc3ccccc3)c2s1", "values": [{"measurement": "logD", "setting": "physchem", "value": 2.3}]}, {"smiles": "O=c1[nH]c2c(O)ccc([C@@H](O)CNCCS(=O)(=O)CCCNCCc3cccc(Cl)c3)c2s1", "values": [{"measurement": "IC50", "setting": "D(2) dopamine receptor", "value": 0.794, "unit": "µM"}]}, {"smiles": "O=c1[nH]c2c(O)ccc([C@@H](O)CNCCCSCCOCCc3cccc4ccccc34)c2s1", "values": [{"measurement": "half-life", "setting": "in vivo", "value": 3.5, "unit": "h"}, {"measurement": "logD", "setting": "physchem", "value": 3.1}]}, {"smiles": "O=c1[nH]c2c(O)ccc([C@@H](O)CNCCCOCCOCCc3cccc4ccccc34)c2s1", "values": [{"measurement": "logD", "setting": "physchem", "value": 2.3}]}]}
